SMILES strings stand for the structures.

This note sets out measurements from US20260007634A1, “PHARMACEUTICAL COMPOSITIONS FOR THE TREATMENT OF ALLERGIC DISEASES” (KINKI UNIVERSITY, priority 2022, published 2026).

In test [1] the target is T1, NIK (Mus musculus, UniProt Q9WUL6).
T1 construct: Proteins were extracted with cell lysate and used as samples; endogenous in cells; host or cells: primary splenic B cells from 6-week-old male Balb/c mice
Put plainly: BAFF-induced NIK activation in B cells (Western blotting, phospho-NIK). Format: cell-based. Here is the method: Spleens were harvested from 6-week-old male Balb/c mice and B cells were isolated. After isolation, the cells were seeded in […] dish and cultured in RPMI 1640 medium for 1 day and used as control. In addition, B cells were seeded into 100 mm^2 dish, and after 1 day of culture, 100 ng/mL BAFF was added and cultured for 1 h. Furthermore, B cells were seeded in […] dish, and after 1 day of culture, 100 μM mangiferin, 10 μM mangiferin 8a, 10 μM norathyriol, 20 μM 1,3,5,6-tetrahydroxyxanthone, 10 μM xanthohydrol, 10 μM of α-mangostin, and 10 μM of γ-mangostin were added to B cells, and after 23 h, 100 ng/mL BAFF was added to each, and the cells were incubated for 1 h. All were incubated at 37° C. and 5% CO2.
Proteins were extracted with cell lysate and used as samples. Each sample was transferred to a PVDF membrane after SDSPAGE and assayed with anti-phospho-NIK, anti-NIK, anti-NF-κB p52, anti-NF-κB p65 and anti-Lamin antibodies.
The antibody species is indicated in the vertical direction. Specifically, in the case of anti-phospho-NIK antibody (described as “Phospho-NIK”), anti-NIK antibody (described as “NIK”), anti-NF-κB p52 antibody (described as “NF-κB p52 nuclear”), anti-NF-κB p65 antibody (described as “NF-κB p65 nuclear”) and anti-Lamin antibody (described as “Lamin”).
In general terms: In western blotting, separated proteins are transferred to a membrane and probed.

Test [2] has as its system B cells collected from mice. Briefly: LPS-induced differentiation into mature B cells (IgM/IgD flow cytometry). As to conditions: 10 μM compound, 10 μg/mL LPS, 10 days. Format: cell-based, mouse. As for the experimental part:
B cells collected from mice were cultured in RPMI 1640 medium for 1 day. Then, 10 μM mangiferin 8a and 10 μM norathyriol were added to B cell, and after 1 day of culture, 10 μg/mL of LPS was added, followed by 10 days of culture. After 10 days of culture, cells were stained with anti-IgM and anti-IgD antibodies, markers of B cells, and the expression of IgM and IgD was measured using BD LSRFortessa. Note that IgM negative and IgD negative indicates pre-B cells, IgM positive and IgD negative indicates immature B cells, and IgM positive and IgD positive indicates mature B cells.

Test [3] has as its system Th1 cells. Briefly: Th1 cell activation in inflammation-induced mouse model (IFNγ flow cytometry). Format: in vivo. To be noted: DBA/1J mice, Freund's complete adjuvant + bovine type2 collagen; oral 10 mg/kg daily 20 days; thymus cells; vs vehicle group. Here is the method: (§1) Equal volume mixtures of Freund's complete adjuvant and Bovine type2 collagen were administered to 6-week-old male DBA/1J mice (Japan SLC Inc.) at 0.1 mL (day 0 of the study). 21 days later, DBA/1J mice were again injected with 0.1 mL of the above mixture for secondary immunization. After the second immunization, mice were orally treated with 10 mg/kg of mangiferin 8a and 10 mg/kg of norathyriol daily for 20 days. 20 days later, thymus glands were harvested from mice and stained with anti-CD4 and anti-IFNγ antibodies, which are Th1 cell markers, and expression of IFNγ (CD4 positive) was measured using BD LSRFortessa.
For orientation: In flow cytometry, cells or beads pass a laser one at a time.

For test [4], the system named is Th2 cells. Put plainly: Th2 cell activation in inflammation-induced mouse model (IL-4 flow cytometry). The test is classed as in vivo. As to conditions: DBA/1J mice, Freund's complete adjuvant + bovine type2 collagen; oral 10 mg/kg daily 20 days; thymus cells; vs vehicle group. Here is the method: as §1, with “anti-IL-4” for “anti-IFNγ”, “Th2” for “Th1”, “IL-4” for “IFNγ”

Test [5] deals with IL-4. Briefly: Auricular tissue IL-4 ELISA, atopic dermatitis mice. Format: in vivo, mouse. As to conditions: day 7, topical application, control 56, vehicle 152. Here is the method:
(§2) MC903 at 2 nM was applied to the right auricle of a 6-week-old male Balb/c (Japan SLC Inc.). Starting 8 h later, 5% norathyriol aqueous solution (1 mL of ethanol containing […] of norathyriol), betamethasone ointment, and delgocitinib ointment were applied to the auricle for 7 days. The measurement of auricular skin swelling was calculated by calipers. The day on which the first application of the compound was made was defined as day 0. Betamethasone and delgocitinib are currently in clinical use in atopic dermatitis and were used as control drugs in this example.
The mouse IL-4 ELISA kit (R&D) was used for this measurement.
(An ELISA detects its analyte on a solid surface through an enzyme-linked reagent.)

The subject of test [6] is Treg cells. Briefly: Treg cell activation in inflammation-induced mouse model (Foxp3 flow cytometry). The test is classed as in vivo. To be noted: DBA/1J mice, Freund's complete adjuvant + bovine type2 collagen; oral 10 mg/kg daily 20 days; thymus cells; vs vehicle group. As for the experimental part: as §1, with “anti-CD4, anti-CD25” for “anti-CD4”, “anti-Foxp3” for “anti-IFNγ”, “Treg” for “Th1”, “Foxp3” for “IFNγ”, “(CD4 positive and CD25” for “(CD4”

Test [7] has as its system mouse macrophages. Briefly: LPS-stimulated macrophage proliferation (trypan blue). Format: cell-based. To be noted: 10 μM compound, 10 μg/mL LPS 3 days, control 10.65×10^4, LPS 19×10^4. As for the experimental part:
The inhibitory effect of the compound on macrophage cell proliferation was examined using mouse macrophages.
Macrophages collected from mice were cultured in RPMI 1640 medium for 1 day. Then, 10 μM mangiferin 8a and 10 μM norathyriol were added to macrophages, and after 1 day of culture, 10 μg/mL of lipopolysaccharide (LPS) was added to each for 3 days. After 3 days of incubation, the number of viable cells was determined by the trypan blue dye method. Note that LPS was used as an allergic inflammation inducer.
Referring to FIG. 49, the horizontal axis indicates treatment with each compound and the vertical axis indicates cell count (1×10^4 cells/mL). Only 0.5% DMSO in PBS, which was used to dissolve the reagent (compound), was added as control. The LPS group is referred to as the LPS group with 10 μg/mL LPS, the mangiferin 8a group is referred to as the mangiferin 8a group with LPS and mangiferin 8a, and the norathyriol group is referred to as the norathyriol group with LPS and norathyriol.

Test [8] has as its system TSLP. Briefly: Auricular tissue TSLP ELISA, atopic dermatitis mice. Format: in vivo, mouse. As to conditions: day 7, topical application, control 317, vehicle 1533. As for the experimental part: as §2
The mouse TSLP ELISA kit (R&D) was used for this measurement.

T1 sequence (Q9WUL6 whole entry): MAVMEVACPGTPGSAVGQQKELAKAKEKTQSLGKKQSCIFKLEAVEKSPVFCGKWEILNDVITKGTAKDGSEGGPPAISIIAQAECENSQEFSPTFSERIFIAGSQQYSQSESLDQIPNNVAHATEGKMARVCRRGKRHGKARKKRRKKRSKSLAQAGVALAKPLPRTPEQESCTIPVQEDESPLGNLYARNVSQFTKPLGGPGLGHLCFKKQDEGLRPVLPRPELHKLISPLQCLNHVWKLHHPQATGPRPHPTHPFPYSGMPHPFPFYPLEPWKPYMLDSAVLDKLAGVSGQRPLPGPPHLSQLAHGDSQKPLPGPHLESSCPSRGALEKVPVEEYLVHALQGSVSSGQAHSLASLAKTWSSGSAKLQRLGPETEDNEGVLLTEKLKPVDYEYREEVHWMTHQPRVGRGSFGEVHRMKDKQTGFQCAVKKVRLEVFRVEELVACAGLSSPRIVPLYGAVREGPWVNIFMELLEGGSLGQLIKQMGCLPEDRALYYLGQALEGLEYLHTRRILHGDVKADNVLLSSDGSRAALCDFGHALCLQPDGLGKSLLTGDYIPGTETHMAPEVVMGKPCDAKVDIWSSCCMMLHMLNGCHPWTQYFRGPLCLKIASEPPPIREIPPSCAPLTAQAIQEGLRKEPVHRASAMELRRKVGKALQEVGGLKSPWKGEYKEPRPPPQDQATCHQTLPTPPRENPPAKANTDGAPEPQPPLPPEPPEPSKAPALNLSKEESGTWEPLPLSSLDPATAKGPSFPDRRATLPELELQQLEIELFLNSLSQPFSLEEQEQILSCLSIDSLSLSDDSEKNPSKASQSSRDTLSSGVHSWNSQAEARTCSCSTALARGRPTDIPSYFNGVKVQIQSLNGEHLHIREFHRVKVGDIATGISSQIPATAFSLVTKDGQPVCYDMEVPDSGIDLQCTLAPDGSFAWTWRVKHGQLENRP

For the molecule `O=c1c2cc(O)c(O)cc2oc2cc(O)cc(O)c12` [norathyriol, 1,3,6,7-tetrahydroxyxanthone], the “phospho-NIK band (immunoblotting)” value in test [1] (100 ng/mL BAFF 1 h after 23 h compound, 100 μM mangiferin, 20 μM 1,3,5,6-tetrahydroxyxanthone, 10 μM others) is “fainter”. In addition, in test [1] (general statement in the description, referring to the examples), the “inhibition of NIK activity compared with mangiferin” value is reported as “more inhibition of NIK activity than mangiferin”. Further, the “population IgM positive and IgD positive (mature B cells)” value in test [2] (control 0.239, LPS only 20.7) was determined as 0.065%. Besides, in test [2] (control 1.91, LPS only 41.8), the “population IgM positive and IgD negative (immature B cells)” value was 2.14%. For the same molecule, in test [2] (control 96.7, LPS only 36.6), the “population IgM negative and IgD negative (pre-B cells)” value was 97.7%. Further, the “IFNγ expression (CD4 positive)” value in test [3] is reported as “markedly reduced”. For the same molecule, in test [4], the “IL-4 expression (CD4 positive)” value is “markedly reduced”. This molecule also came in with an IL-4 secretion in test [5] of 94 pg/mL. The “Foxp3 expression (CD4 positive and CD25 positive)” value in test [6] is “slightly increased”. Besides, the “number of viable cells (cell count)” value in test [7] is reported as 7.5×10^4 cells/mL. The TSLP secretion in test [8] is recorded as 1026 pg/mL.
